Laboratory results reported in patent US12122761B2, “2-azaspiro[3.4]octane derivatives as M4 agonists” (NOVARTIS AG, priority 2019, dated 2024).

How the values were obtained:
[1] = target: T1, human cloned CHRM2 receptor (M2_CHO cells) (Homo sapiens, UniProt P08172); experiment: CHRM2 Ca++ Flux Assay (agonist mode, FDSS 7000EX); type: cell-based; details: for Emax / M2 FDSS PA: Percent Activity measured to EC100 of Carbachol; for Emax: read-out: M2 FDSS PA; for EC50: agonist mode, geometric mean if tested more than once, read-out: M2 FDSS EC50
T1 construct: expressed in transfected cells; host or cells: CHO-K1
T1 sequence (P08172 1-466): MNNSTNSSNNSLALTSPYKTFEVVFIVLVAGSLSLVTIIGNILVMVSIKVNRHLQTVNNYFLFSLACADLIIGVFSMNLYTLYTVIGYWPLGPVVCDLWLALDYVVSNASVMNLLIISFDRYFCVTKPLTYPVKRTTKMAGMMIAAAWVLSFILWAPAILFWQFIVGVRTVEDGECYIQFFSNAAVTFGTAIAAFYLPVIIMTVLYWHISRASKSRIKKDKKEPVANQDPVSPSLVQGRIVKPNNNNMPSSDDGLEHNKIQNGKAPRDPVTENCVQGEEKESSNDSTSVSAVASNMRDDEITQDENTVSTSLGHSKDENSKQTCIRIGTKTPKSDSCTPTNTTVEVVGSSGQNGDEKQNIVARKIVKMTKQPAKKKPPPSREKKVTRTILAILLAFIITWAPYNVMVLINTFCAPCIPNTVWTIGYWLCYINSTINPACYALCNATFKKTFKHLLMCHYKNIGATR
Summary of the method: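 Response expressed as percent activity versus the Carbachol EC100, with curves fitted by four-parameter non-linear regression of triplicates. Stable M2_CHO cells were Ca++ dye-loaded and preincubated 60 min at room temperature in assay buffer containing 20 μM ATP; signal imaged for 3 minutes after compound.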

[2] = target: T2, human cloned CHRM4 receptor (M4_CHO cells) (Homo sapiens, UniProt P08173); experiment: CHRM4 Ca++ Flux Assay (agonist mode, FDSS 7000EX); type: cell-based; details: for Emax / M4 FDSS PA: Percent Activity; for Emax: read-out: M4 FDSS PA; for EC50: geometric mean if tested more than once, read-out: M4 FDSS EC50
T2 construct: expressed in transfected cells; host or cells: CHO-K1
T2 sequence (P08173 1-479): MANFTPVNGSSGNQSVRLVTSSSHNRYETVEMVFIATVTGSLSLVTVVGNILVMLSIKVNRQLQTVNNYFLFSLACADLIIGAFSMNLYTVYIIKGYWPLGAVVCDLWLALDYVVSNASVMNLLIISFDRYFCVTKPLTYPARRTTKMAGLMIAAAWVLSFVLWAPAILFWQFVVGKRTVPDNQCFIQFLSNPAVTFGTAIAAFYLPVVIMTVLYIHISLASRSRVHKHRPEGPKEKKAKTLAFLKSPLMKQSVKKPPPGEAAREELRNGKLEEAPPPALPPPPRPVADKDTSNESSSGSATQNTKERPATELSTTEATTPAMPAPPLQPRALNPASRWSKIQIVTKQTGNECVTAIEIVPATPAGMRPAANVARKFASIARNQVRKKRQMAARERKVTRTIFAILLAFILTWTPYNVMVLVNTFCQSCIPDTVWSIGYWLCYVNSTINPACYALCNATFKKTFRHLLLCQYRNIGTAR
Summary of the method: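 Agonist-mode response was expressed as percent of the Carbachol EC100 and fitted with four-parameter nonlinear regression over an 11-point triplicate dose series. Intracellular Ca++ was tracked for 3 min by fluorescent dye in CHO-K1 cells stably expressing human CHRM4. Cells were preincubated 60 min with 20 μM ATP in buffer containing 2.5 mM probenecid.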

| Emax [1] [%] | EC50 [1] [nM] | Emax [2] [%] | EC50 [2] [nM] | M2 FDSS PA [1] [%] | M4 FDSS PA [2] [%] | Structure (SMILES) |
| --- | --- | --- | --- | --- | --- | --- |
| 36 | 7880 | 61 | 29 |  |  | Cc1ccc(N2CC3(CC[C@@H](N4CCC(c5ccccc5O[C@@H]5CCOC5)CC4)C3)C2)cn1 [Example 5L, (R)-2-(6-methylpyridin-3-yl)-6-(4-(2-(((R)-tetrahydrofuran-3-yl)oxy)phenyl)piperidin-1-yl)-2-azaspiro[3.4]octane] |
|  |  |  | 22 | 0 | 49 | Cc1nnc(COc2ccccc2C2CCN([C@@H]3CCC4(C3)CN(C(=O)C3(F)CC3)C4)CC2)o1 (single isomer, unassigned) [Example 7Y, (R)-(1-fluorocyclopropyl)(6-(4-(2-((5-methyl-1,3,4-oxadiazol-2-yl)methoxy)phenyl)piperidin-1-yl)-2-azaspiro[3.4]octan-2-yl)methanone or (S)-(1-fluorocyclopropyl)(6-(4-(2-((5-methyl-1,3,4-oxadiazol-2-yl)methoxy)phenyl)piperidin-1-yl)-2-azaspiro[3.4]octan-2-yl)methanone] |
|  | 35 |  | < 0.4 | 30 | 62 | Fc1ccc(C2CCOCC2)c(C2CCN([C@@H]3CCC4(C3)CN(c3cncnc3)C4)CC2)c1 (single isomer, unassigned) [Example 10C, (R)-6-(4-(5-fluoro-2-(tetrahydro-2H-pyran-4-yl)phenyl)piperidin-1-yl)-2-(pyrimidin-5-yl)-2-azaspiro[3.4]octane or (S)-6-(4-(5-fluoro-2-(tetrahydro-2H-pyran-4-yl)phenyl)piperidin-1-yl)-2-(pyrimidin-5-yl)-2-azaspiro[3.4]octane] |
| 18 |  | 64 | 9 |  |  | COc1ccccc1C1CCN([C@@H]2CCC3(C2)CN(c2cccnc2)C3)CC1 [Example 5K, (R)-6-(4-(2-methoxyphenyl)piperidin-1-yl)-2-(pyridin-3-yl)-2-azaspiro[3.4]octane] |
|  |  |  | 1070 | 0 | 17 | COc1ccccc1C1CCN([C@H]2CCC3(C2)CN(c2ncco2)C3)CC1 (single isomer, unassigned) [Example 10I, S)-2-(6-(4-(2-methoxyphenyl)piperidin-1-yl)-2-azaspiro[3.4]octan-2-yl)oxazole or (R)-2-(6-(4-(2-methoxyphenyl)piperidin-1-yl)-2-azaspiro[3.4]octan-2-yl)oxazole] |
|  |  |  | > 25000 | 0 | 0 | O=C(N1CC2(CC[C@@H](N3CCC(c4ccccc4C4(O)CCOCC4)CC3)C2)C1)C1(F)CC1 (single isomer, unassigned) [Example 9H, (R)-(1-fluorocyclopropyl)(6-(4-(2-(4-hydroxytetrahydro-2H-pyran-4-yl)phenyl)piperidin-1-yl)-2-azaspiro[3.4]octan-2-yl)methanone or (S)-(1-fluorocyclopropyl)(6-(4-(2-(4-hydroxytetrahydro-2H-pyran-4-yl)phenyl)piperidin-1-yl)-2-azaspiro[3.4]octan-2-yl)methanone] |
| 0 |  | 51 | 131 |  |  | COc1ccccc1C1CCN([C@@H]2CCC3(C2)CN(c2cc(Cl)nnc2Cl)C3)CC1 [Example 5R, (R)-2-(3,6-dichloropyridazin-4-yl)-6-(4-(2-methoxyphenyl)piperidin-1-yl)-2-azaspiro[3.4]octane] |
|  | > 25000 |  | 11 | 0 | 67 | FC(F)(F)Oc1ccccc1C1CCN([C@@H]2CCC3(C2)CN(c2nncs2)C3)CC1 (single isomer, unassigned) [Example 10M, (R)-2-(6-(4-(2-(trifluoromethoxy)phenyl)piperidin-1-yl)-2-azaspiro[3.4]octan-2-yl)-1,3,4-thiadiazole or (S)-2-(6-(4-(2-(trifluoromethoxy)phenyl)piperidin-1-yl)-2-azaspiro[3.4]octan-2-yl)-1,3,4-thiadiazole] |
|  |  |  | 9 | 0 | 50 | Cc1nc(COc2ccccc2C2CCN([C@@H]3CCC4(C3)CN(C(=O)C3(F)CC3)C4)CC2)no1 (single isomer, unassigned) [Example 7Z, (R)-(1-fluorocyclopropyl)(6-(4-(2-((5-methyl-1,2,4-oxadiazol-3-yl)methoxy)phenyl)piperidin-1-yl)-2-azaspiro[3.4]octan-2-yl)methanone or (S)-(1-fluorocyclopropyl)(6-(4-(2-((5-methyl-1,2,4-oxadiazol-3-yl)methoxy)phenyl)piperidin-1-yl)-2-azaspiro[3.4]octan-2-yl)methanone] |
| 0 |  | 60 | 9 |  |  | COc1ccccc1C1CCN([C@@H]2CCC3(C2)CN(c2nccnc2C)C3)CC1 [Example 5J, (R)-6-(4-(2-methoxyphenyl)piperidin-1-yl)-2-(3-methylpyrazin-2-yl)-2-azaspiro[3.4]octane] |
|  |  |  | 76 | 0 | 14 | O=C(N1CC2(CC[C@@H](N3CCC(c4ccccc4C4(O)CCOCC4)CC3)C2)C1)C1(F)CC1 (single isomer, unassigned) [Example 9G, (R)-(1-fluorocyclopropyl)(6-(4-(2-(4-hydroxytetrahydro-2H-pyran-4-yl)phenyl)piperidin-1-yl)-2-azaspiro[3.4]octan-2-yl)methanone or (S)-(1-fluorocyclopropyl)(6-(4-(2-(4-hydroxytetrahydro-2H-pyran-4-yl)phenyl)piperidin-1-yl)-2-azaspiro[3.4]octan-2-yl)methanone] |
|  |  |  | > 25000 | 28 | 1 | FC(F)(F)Oc1ccccc1C1CCN([C@@H]2CCC3(C2)CN(c2nncs2)C3)CC1 (single isomer, unassigned) [Example 10N, (R)-2-(6-(4-(2-(trifluoromethoxy)phenyl)piperidin-1-yl)-2-azaspiro[3.4]octan-2-yl)-1,3,4-thiadiazole or (S)-2-(6-(4-(2-(trifluoromethoxy)phenyl)piperidin-1-yl)-2-azaspiro[3.4]octan-2-yl)-1,3,4-thiadiazole] |
| 0 |  | 36 | 156 |  |  | COc1ccccc1C1CCN([C@@H]2CCC3(C2)CN(c2ccc(C)nc2)C3)CC1 [Example 5D, (R)-6-(4-(2-methoxyphenyl)piperidin-1-yl)-2-(6-methylpyridin-3-yl)-2-azaspiro[3.4]octane] |
|  |  |  | > 25000 | 0 | 1 | Cc1noc(C)c1COc1ccccc1C1CCN([C@@H]2CCC3(C2)CN(C(=O)C2(F)CC2)C3)CC1 (single isomer, unassigned) [Example 7U, (R)-(6-(4-(2-((3,5-dimethylisoxazol-4-yl)methoxy)phenyl)piperidin-1-yl)-2-azaspiro[3.4]octan-2-yl)(1-fluorocyclopropyl)methanone or (S)-(6-(4-(2-((3,5-dimethylisoxazol-4-yl)methoxy)phenyl)piperidin-1-yl)-2-azaspiro[3.4]octan-2-yl)(1-fluorocyclopropyl)methanone] |
| 21 | 19 | 77 | < 0.4 |  |  | COc1ccccc1C1CCN([C@@H]2CCC3(C2)CN(c2ncon2)C3)CC1 [Example 4A, (R)-3-(6-(4-(2-methoxyphenyl)piperidin-1-yl)-2-azaspiro[3.4]octan-2-yl)-1,2,4-oxadiazole] |
| 0 |  | 54 | 21 |  |  | c1ccc(C2CCN([C@@H]3CCC4(C3)CN(c3ncncn3)C4)CC2)c(OCC2CCOCC2)c1 [Example 5Q, (R)-6-(4-(2-((tetrahydro-2H-pyran-4-yl)methoxy)phenyl)piperidin-1-yl)-2-(1,3,5-triazin-2-yl)-2-azaspiro[3.4]octane] |
